From patent publication US8871767B2, “2-arylimidazo[1,2-B]pyridazine, 2-phenylimidazo[1,2-A]pyridine, and 2-phenylimidazo[1,2-A]pyrazine derivatives” (Hengrui (USA) Ltd., priority 2010, dated 2014) come the findings set out here.

The first test relates to Hedgehog pathway activation (GLi-luciferase reporter) in Shh Light II reporter cells. Put plainly: Hedgehog pathway activation on Shh Light II reporter cells measured by luciferase activity. The format is cell-based. The note with it: Mus musculus, Shh Light II, hShh activation, read-out: Shh (IC50, inhibition of Hedgehog pathway activation). The method, then: Hedgehog conditioned media was obtained by transfecting 293H cells with the full length gene encoding human Sonic Hedgehog (hShh) inserted into the pCMV6 expression vector, which contains a neomycin selectable marker and expresses the protein of interest with a C-terminal FLAG affinity tag. After selection in G418 containing media, conditioned media from Hedgehog expressing clones were tested for the ability to activate the hedgehog-responsive GLi-luciferase reporter in the Shh Light II cell line obtained by license from John Hopkins University (Taipale J, et al. Effects of oncogenic mutations in Smoothened and Patched can be reversed by cyclopamine. Nature 406: 1005-1009, 2000).
A test compound library was screened against hShh and 500 nM SAG (a direct agonist of the Smoothened receptor) activated 10T1/2/Smo#3 cells and Shh Light II reporter cells for the ability to block Hedgehog pathway activation. Concurrently, cell viability was measured by utilizing Celltiter-Blue® (Promega, Madison Wis.) viability assay. Active compounds were defined as those that inhibited Hedgehog signaling by greater than 50% with no concurrent loss in cell viability.
Their inhibitory activity against Hedgehog pathway activation on 10T1/2/Smo#3 cells as measured by ALP activity and Shh Light II reporter cells as measured by luciferase activity is shown in Table 1 below. In Table 1, +++ stands for an IC50 value that is less than 0.3 μM, ++ between 0.3 and 3 μM, + between 3 and 30 μM.
Additional data for compounds of the invention is shown below in Table 2. Their inhibitory activities against Hedgehog pathway activation are shown as IC50 values in μM on 10T1/2/Smo#3 cells as measured by ALP activity, or on Shh Light II reporter cells as measured by luciferase activity (hShh activation).
The IC50 is the concentration that gives 50% inhibition. Turning to `Cc1ccc(-c2cn3nc(-c4ccc(C(=N)NN)cc4C(F)(F)F)ccc3n2)cc1NC(=O)C(C)(C)C` [compound 586], the 50% inhibitory concentration (IC50) turned out to be 87 nM.

As to `Cc1ccc(-c2cn3nc(-c4ccc(C(F)(F)F)cn4)ccc3n2)cc1NC(=O)C(C)(C)C` [Example 457, N-(2-methyl-5-(6-(5-(trifluoromethyl)pyridin-2-yl)imidazo[1,2-b]pyridazin-2-yl)phenyl)pivalamide], the IC50 was 334 nM.

As to `Cc1ccc(-c2cn3nc(-c4cncc(C(F)(F)F)c4)ccc3n2)cc1NC(=O)C(C)(C)C` [compound 536, N-(2-methyl-5-(6-(5-(trifluoromethyl)pyridin-3-yl)imidazo[1,2-b]pyridazin-2-yl)phenyl)pivalamide], the half-maximal inhibitory concentration (IC50) turned out to be 370 nM.

For `Cc1ccc(-c2cn3nc(C4=CCCCC4)ccc3n2)cc1NC(=O)C(C)(C)C` [Example 443, N-(5-(6-cyclohexenylimidazo[1,2-b]pyridazin-2-yl)-2-methylphenyl)pivalamide], the IC50 worked out at 1880 nM.

Turning to `CC(C)(C)C(=O)Nc1cc(-c2cn3nc(-c4cccnc4N)ccc3n2)ccc1C(F)(F)F` [Example 344, N-(5-(6-(2-aminopyridin-3-yl)imidazo[1,2-b]pyridazin-2-yl)-2-(trifluoromethyl)phenyl)pivalamide], the 50% inhibitory concentration (IC50) stood at 8740 nM.

In the case of `Cc1ccc(-c2cn3nc(NCc4cccc(C=CC(=O)NO)c4)ccc3n2)cc1NC(=O)C(C)(C)C` [compound 614], the IC50 was 4370 nM.

Turning to `Cc1ccc(-c2cn3nc(-c4cccc(N)n4)ccc3n2)cc1NC(=O)C(C)(C)C` [compound 575, N-(5-(6-(6-aminopyridin-2-yl)imidazo[1,2-b]pyridazin-2-yl)-2-methylphenyl)pivalamide], the IC50 is 599 nM.

In the case of `CCOC(=O)CC(=O)Nc1cc(-c2cn3nc(-c4cccnc4C(F)(F)F)ccc3n2)ccc1C` [Example 435, ethyl 3-(2-methyl-5-(6-(2-(trifluoromethyl)pyridin-3-yl)imidazo[1,2-b]pyridazin-2-yl)phenylamino)-3-oxopropanoate], the half-maximal inhibitory concentration (IC50) worked out at 1270 nM.

As to `Cc1ccc(-c2cn3nc(-c4ccccc4O)ccc3n2)cc1NC(=O)C(C)(C)C` [Example 276, N-(5-(6-(2-hydroxyphenyl)imidazo[1,2-b]pyridazin-2-yl)-2-methylphenyl)pivalamide], the IC50 came out at 1960 nM.

`Cc1ccc(-c2cn3nc(-c4cccc(NC(=O)CCCCCCC(=O)NO)n4)ccc3n2)cc1NC(=O)C(C)(C)C` [compound 580, N1-hydroxy-N8-(6-(2-(4-methyl-3-pivalamidophenyl)imidazo[1,2-b]pyridazin-6-yl)pyridin-2-yl)octanediamide]: the IC50 stood at 1320 nM.

Turning to `CC(C)(C)C(=O)Nc1cc(-c2cn3nc(N4CCCC(O)C4)ccc3n2)ccc1C(F)(F)F` (stereo not drawn) [Example 336, N-(5-(6-(3-hydroxypiperidin-1-yl)imidazo[1,2-b]pyridazin-2-yl)-2-(trifluoromethyl)phenyl)pivalamide], the IC50 stood at 230 nM.

For `COc1cc(CNc2ccc3nc(-c4ccc(C)c(NC(=O)C(C)(C)C)c4)cn3n2)cc(OC)c1OC` [compound 587], the IC50 stood at 632 nM.

Take `Cc1ccc(-c2cn3nc(-c4ccc(C(F)(F)F)nc4)ccc3n2)cc1NC(=O)C(C)(C)C` [Example 322, N-(2-methyl-5-(6-(6-(trifluoromethyl)pyridin-3-yl)imidazo[1,2-b]pyridazin-2-yl)phenyl)pivalamide]: the IC50 was 917 nM.

In the case of `COC(=O)CCCCC(=O)Nc1cc(-c2cn3nc(-c4cccnc4C(F)(F)F)ccc3n2)ccc1C` [Example 421, methyl 6-(2-methyl-5-(6-(2-(trifluoromethyl)pyridin-3-yl)imidazo[1,2-b]pyridazin-2-yl)phenylamino)-6-oxohexanoate], the IC50 was 3310 nM.

For the molecule `Cc1ccc(-c2cn3nc(-c4ccc(C(N)=NO)cc4C)ccc3n2)cc1NC(=O)C(C)(C)C` [compound 576], the IC50 stood at 155 nM.

As for `CCOC(=O)CCCOc1ccc(C(F)(F)F)c(-c2ccc3nc(-c4ccc(C)c(NC(=O)C(C)(C)C)c4)cn3n2)c1` [Example 434, ethyl 4-(3-(2-(4-methyl-3-pivalamidophenyl)imidazo[1,2-b]pyridazin-6-yl)-4-(trifluoromethyl)phenoxy)butanoate], the IC50 stood at 353 nM.

Consider `Cc1ccc(-c2cn3nc(-c4ccc(S(N)(=O)=O)cc4)ccc3n2)cc1NC(=O)C(C)(C)C` [compound 534], for which the IC50 came out at 1450 nM.

Consider `CCN1CCN(c2ccc3nc(-c4ccc(C(F)(F)F)c(NC(=O)C(C)(C)C)c4)cn3n2)CC1` [Example 317, N-(5-(6-(4-ethylpiperazin-1-yl)imidazo[1,2-b]pyridazin-2-yl)-2-(trifluoromethyl)phenyl)pivalamide], for which the IC50 is 1250 nM.

With `CC(C)(C)OC(=O)N1CCN(c2ccc3nc(-c4ccc(C(F)(F)F)c(NC(=O)C(C)(C)C)c4)cn3n2)CC1` [Example 327, tert-butyl 4-(2-(3-pivalamido-4-(trifluoromethyl)phenyl)imidazo[1,2-b]pyridazin-6-yl)piperazine-1-carboxylate], the half-maximal inhibitory concentration (IC50) stood at 484 nM.

Regarding `CNC(=O)c1ccc(-c2ccc3nc(-c4ccc(C)c(NC(=O)C(C)(C)C)c4)cn3n2)cc1` [compound 525], the IC50 stood at 441 nM.

Turning to `COC(=O)CCCCC(=O)Nc1ccc(-c2ccc3nc(-c4ccc(C)c(NC(=O)C(C)(C)C)c4)cn3n2)c(C(F)(F)F)c1` [compound 510], the IC50 is 379 nM.

On to `Cc1ccc(-c2cn3nc(-c4ccc(C(=O)NO)cc4)ccc3n2)cc1NC(=O)C(C)(C)C` [compound 588], for which the IC50 came to 1050 nM.

In the case of `CCOC(=O)C=Cc1cccc(C(=O)Nc2cc(-c3cn4nc(C=CC(=O)OCC)ccc4n3)ccc2C)c1` [compound 610], the IC50 came to 465 nM.

Regarding `Cc1ccc(-c2cn3nc(-c4cccnc4C(F)(F)F)ccc3n2)cc1-c1nc(C(C)(C)C)cs1` [compound 520], the IC50 was found to be 492 nM.

Turning to `CC(=O)c1ccc(-c2ccc3nc(-c4ccc(C)c(NC(=O)C(C)(C)C)c4)cn3n2)cc1` [compound 522], the 50% inhibitory concentration (IC50) was determined as 1300 nM.

Consider `Cc1ccc(-c2cn3nc(Cl)ccc3n2)cc1NC(=O)C(C)(C)C#N` [compound 620], for which the IC50 was 3200 nM.

Turning to `Cc1ccc(-c2cn3nc(-c4cccnc4C(F)(F)F)ccc3n2)cc1C#N` [Example 480, 2-methyl-5-(6-(2-(trifluoromethyl)pyridin-3-yl)imidazo[1,2-b]pyridazin-2-yl)benzonitrile], the IC50 was found to be 5190 nM.

For the molecule `Cc1noc(C)c1-c1ccc2nc(-c3ccc(C(F)(F)F)c(NC(=O)C(C)(C)C)c3)cn2n1` [Example 326, N-(5-(6-(3,5-dimethylisoxazol-4-yl)imidazo[1,2-b]pyridazin-2-yl)-2-(trifluoromethyl)phenyl)pivalamide], the IC50 stood at 217 nM.

On to `CCOC(=O)CCCOc1cc(-c2ccc3nc(-c4ccc(C)c(NC(=O)C(C)(C)C)c4)cn3n2)cc(C(F)(F)F)n1` [Example 431, ethyl 4-(4-(2-(4-methyl-3-pivalamidophenyl)imidazo[1,2-b]pyridazin-6-yl)-6-(trifluoromethyl)pyridin-2-yloxy)butanoate], for which the IC50 was determined as 422 nM.

With `CC(=O)Nc1ccc(-c2ccc3nc(-c4ccc(C)c(NC(=O)C(C)(C)C)c4)cn3n2)cn1` [compound 505, N-(5-(6-(6-acetamidopyridin-3-yl)imidazo[1,2-b]pyridazin-2-yl)-2-methylphenyl)pivalamide], the IC50 worked out at 990 nM.

Turning to `CCOC(=O)CCC(=O)Nc1cc(-c2cn3nc(-c4cccnc4C(F)(F)F)ccc3n2)ccc1C` [Example 436, ethyl 4-(2-methyl-5-(6-(2-(trifluoromethyl)pyridin-3-yl)imidazo[1,2-b]pyridazin-2-yl)phenylamino)-4-oxobutanoate], the IC50 was 975 nM.

Regarding `COC(=O)c1ccc(CNc2ccc3nc(-c4ccc(C)c(NC(=O)C(C)(C)C)c4)cn3n2)cc1` [compound 592], the IC50 was determined as 443 nM.

For the molecule `Cc1ccc(-c2cn3nc(N4CCC(F)(F)C4)ccc3n2)cc1NC(=O)C(C)(C)C` [Example 277, N-(5-(6-(3,3-difluoropyrrolidin-1-yl)imidazo[1,2-b]pyridazin-2-yl)-2-methylphenyl)pivalamide], the 50% inhibitory concentration (IC50) worked out at 350 nM.

As to `CC(C)(C)C(=O)Nc1cc(-c2cn3nc(-c4ccccc4N)ccc3n2)ccc1C(F)(F)F` [Example 345, N-(5-(6-(2-aminophenyl)imidazo[1,2-b]pyridazin-2-yl)-2-(trifluoromethyl)phenyl)pivalamide], the IC50 worked out at 5490 nM.

The same test, now with this note: hShh activation, read-out: Shh (IC50, inhibition of Hedgehog pathway activation).
In the case of `Cc1ccc(-c2cn3nc(-c4cccnc4C(F)(F)F)ccc3n2)cc1NC(=O)CCCCCCC(=O)O` [Example 430, 8-(2-methyl-5-(6-(2-(trifluoromethyl)pyridin-3-yl)imidazo[1,2-b]pyridazin-2-yl)phenylamino)-8-oxooctanoic acid], the IC50 came out at 5430 nM.

For `Cc1ccc(-c2cn3nc(-c4cccnc4C(F)(F)F)ccc3n2)cc1NC(=O)CCCCCCC(=O)O` [compound 553, 8-((2-methyl-5-(6-(2-(trifluoromethyl)pyridin-3-yl)imidazo[1,2-b]pyridazin-2-yl)phenyl)amino)-8-oxooctanoic acid], the IC50 is 701 nM.
